{"source": "patent US10220040B2", "about": "“Compounds, compositions and methods useful for cholesterol mobilization” (Cerenis Therapeutics Holding SA, priority 2010, dated 2019)", "tested_on": "apoE −/− mice", "assay": "ApoE−/− mice flow cessation model (ligated carotid, Western diet)", "format": "in vivo", "text": "FIG. 17A-J: Dose-response effect of P2Y13 agonist on atherosclerotic plaque progression in ApoE^−/− mice. ApoE^−/− mice (n=7) were ligated on the upper part of the left carotids. On the day of the surgery the animals were placed on a Western diet and given an oral gavage of vehicle or increasing doses of Compound IIa. Ligated carotids were lipid extracted in 2:1 chloroform/methanol. FIG. 17A: the concentrations in unesterified cholesterol (dark bars) and total cholesterol (superimposed gray bars) were measured by HPLC. FIG. 17E and FIG. 17H: hematoxylin eosin staining of longitudinal sections of ApoE^−/− mice carotids. FIG. 17F and FIG. 17I: Oil Red O staining of longitudinal sections of ApoE^−/− mice carotids. FIG. 17G and FIG. 17J: CD-68 antibody staining of longitudinal sections of ApoE^−/− mice carotids. FIG. 17B: quantification of the intima/media ratio (n=10). FIG. 17C: Oil Red O positive staining quantification (n=10). FIG. 17D: CD68 antibody staining quantification (n=10). The mice were dosed for 2 weeks with vehicle (FIG. 17E, FIG. 17F and FIG. 17G) or Compound IIa at 100 μg/kg (FIG. 17H, FIG. 17I and FIG. 17J).\nApoE^−/− mice “flow cessation model”: Left carotid of apoE^−/− mice were ligatured and placed on Western diet. These mice were given Compound IIa once a day at 100 μg/kg (0.5% CMC, 0.2% Tween80) for 2 weeks.\nThe left carotid fixed in formalin was embedded in OCT and frozen at −20° C. Four step frozen sections of 50 μm separated one from the other were processed and stained with Oil red O (ORO). Macrophages were detected using primary rat monoclonal anti CD-68 antibody (Abcam).\nThe effect of the stimulation of the P2Y13r pathway by the agonists on the atherosclerotic plaque lesions in apoE −/− mice that are very susceptible to develop atherosclerosis on a short term Western (i.e. high-cholesterol) diet was investigated. […] The quantification of plaque components by histo-pathological analysis of the treated carotids with hematoxylin-eosin (FIG. 17B, E, H), oil-red O staining (FIG. 17C, F, I) and with CD68 antibody (specific of the macrophages), (FIG. 17D, G, J) further confirmed this observation."}
{"smiles": "CN(C)c1ncc(CN2CCC(c3cc(O)nc(N4CCOCC4)n3)CC2)cn1", "note": "[Compound IIa, 6-[1-(2-Dimethylaminopyrimidin-5-ylmethyl)-piperidin-4-yl]-2-morpholin-4-yl-pyrimidin-4-ol]", "values": [{"measurement": "cholesterol deposit in non-inflammatory right carotids", "setting": "100 μg/kg, vehicle 18.2+/−3.6", "value": "7.5+/−3.4 nmole/mg of tissue"}, {"measurement": "progression of the atherosclerosis lesions (lesion cholesterol content) compared to control animals", "setting": "oral dosing for 2 weeks along with high-cholesterol diet, ligated carotid", "value": "dose-dependent inhibition"}, {"measurement": "inhibition of the atherosclerosis progression in mice", "setting": "summary statement", "value": "dramatic effect"}, {"measurement": "lipid content of the carotids (staining)", "setting": "treated animals, 2 weeks", "value": "decrease"}]}
